Values quoted from earlier work, collected in patent publication US20040198708A1, “Formulations of mometasone and a bronchodilator for pulmonary administration” (priority 2000, published 2004).

What was measured:
HPA axis [1] = settings: mice, inhaled; Chapman et al. (1998)
HPA axis [2] = settings: humans, inhaled, dosages of up to 800 mcg daily; Bernstein et al. (1999)
[3] = test system: patients with mild to moderate persistent asthma; settings: inhaled once daily, Nayak et al. (2000)

Suppression of the HPA axis (HPA axis [1]): has not been reported
HPA axis suppression (HPA axis [2]): did not cause HPA axis suppression
Compound: C[C@@H]1C[C@H]2[C@@H]3CCC4=CC(=O)C=C[C@]4(C)[C@@]3(Cl)[C@@H](O)C[C@]2(C)[C@@]1(OC(=O)c1ccco1)C(=O)CCl [mometasone furoate, (11β,16α)-9,21-dichloro-17-[(2-furanylcarbonyl)oxy]-11-hydroxy-16-methylpregna-1,4-diene-3,20-dione]
Effectiveness in treating asthma [3]: effective
